The values that follow come from PMC9781827, “Isolation and Identification of Anti-Inflammatory Peptide from Goose Blood Hydrolysate to Ameliorate LPS-Mediated Inflammation and Oxidative Stress in RAW264.7 Macrophages” (Molecules, 2022).

What all share (type): cell-based
One assay has as its system ROS. Nature of the assay: ROS level in LPS-mediated RAW264.7 macrophages (DCFH-DA probe). The conditions noted are these: stimulation with LPS alone; mean ± S.D., n = 3. As to the method:
(§1) The culture medium was collected and centrifuged at 3000× g for 10 min. Then, the inflammatory cytokines levels of TNF-α (MB-50051A), IL-1β (MB-50064B) and IL-6 (MB-50054A) in the culture medium were determined with ELISA kits (Jiangsu Enzyme marker Biotechnology Co., Ltd., Yancheng, China). […] (7) Add 50 μL of stop solution to each well, and measure its absorbance value at 450 nm wavelength. The activities of SOD, GSH-Px and the levels of ROS and Nitric oxide (NO) in macrophages were determined with spectrophotometric kits. […] The absorbance value of miscible liquid was measured at 450 nm wavelength by a multifunctional microplate reader; GSH-Px: 0.2 mL of sample was mixed with 0.2 mL GSH-Px (1 mmol/L) and performed at 37 °C for 5 min. […] The absorbance value was measured at 412 nm wavelength by a multifunctional microplate reader; ROS: DCFH-DA probe was added directly to serum-free medium: DCFH-DA was generally diluted with serum-free medium at a final concentration of 10 µM at 1:1000. […] In general, obvious green fluorescence can be observed in positive control cells after 20 min of stimulation. […] It can also be detected according to FITC fluorescence detection conditions. The results were expressed as fluorescence values.

A further assay relates to SOD. Nature of the assay: SOD activity in LPS-mediated RAW264.7 macrophages. The note with it: LPS alone; mean ± S.D., n = 3. How it is done: as §1
Assay [1] deals with TLR4, CD14, MD-2, MyD88, p-NF-kB/NF-kB, IKKβ. Nature of the assay: Western blot of TLR4, CD14, MD-2, MyD88, p-NF-kB/NF-kB, IKKβ in RAW264.7 macrophages. The conditions noted are these: LPS group vs CTRL group, p < 0.05. As to the method: (§2) RAW264.7 macrophages were washed with cold PBS and homogenized with two small magnetic beads (2 mm) and 10× volume of RIPA buffer containing 1% protease inhibitors for 60 s. Then the supernatant was collected after centrifuging at 12,000× g for 10 min at 4 °C, which was the total protein solution. The concentration of protein in the total protein solution was measured by BCA kits. The protein concentration of the supernatant was diluted to 2.0 mg/mL and mixed with an equal volume of buffer (0.25 mol/L Tris-HCl buffer, pH 6.8, containing 4% SDS and 20% glycerol with 20 mmol/L 2-mercaptoethanol). The stacking gel and separating gel were made of 5% (w/v) and 10% (w/v) polyacrylamide, respectively. Electrophoresis was carried out at 80 V until the dye front reached the bottom of the stacking gel, and the gel was run at 120 V until the dye front reached the bottom of the separating gel (165-8001, Bio-Rad Mini-PROTEAN Tetra Electrophoresis System). The PVDF membrane was covered on the gel and transferred membrane at 300 mA for 30 min. The membrane was moved into a decolorization shaker with 5% skim milk (0.5% TBST) and blocked for 1 h at room temperature. […] The film was scanned and archived, processed and decolorized by Photoshop, and the optical density value of the target band was analysed by ImageJ software processing system.
(In general: Immunoblotting shows a protein as a band on a membrane.)

The next assay concerns iNOS. Nature of the assay: Western blot of iNOS in RAW264.7 macrophages. The note with it: LPS group vs CTRL group, p < 0.05. As to the method:
as §2

In the case of lipopolysaccharide [LPS], in the assay with ROS, the “levels of ROS” value was 61.96 ± 2.27 U/mg prot. Also, the “level of SOD” value with SOD worked out at 24.43 ± 1.41 U/mg prot. Besides, the “protein expression levels of TLR4, CD14, MD2, MyD88, p-NF-kB, NF-kB and IKKβ” value in assay [1] is recorded as “elevated”. Moreover, the “protein expression level of iNOS” value in the assay with iNOS is “higher”.
